Measurements taken from ChEMBL document CHEMBL1125961, “Monodeoxy-1,4:3,6-dianhydrohexitol nitrates” (1991).
Activity calls are given as the source filed them. No cut-off for these calls is given here.

Experiments:
Oryctolagus cuniculus = species on record: Oryctolagus cuniculus; assay: Compound was evaluated for reduction of arterial medium pressure of rabbit by 30 mm Hg; format: functional, Artery
Rattus norvegicus [1] = assay: Compound was evaluated for T-wave increase of rat EKG measured as percent reduction after 30 min at a dosage of 200 mg/kg; format: functional
Rattus norvegicus [2] = assay: Compound was evaluated for T-wave increase of rat EKG measured as percent reduction after 30 min at a dosage of 60 mg/kg; format: functional
Rattus norvegicus [3] = assay: Compound was evaluated for T-wave increase of rat EKG measured as percent reduction after 30 min at a dosage of 4 mg/kg; format: functional
Rattus norvegicus [4] = assay: Compound was evaluated for T-wave increase of rat EKG measured as percent reduction after 30 min at a dosage of 100 mg/kg; NE means no effect; format: functional, organism-based; parameters: dose 100 mg/kg
Rattus norvegicus [5] = assay: Compound was evaluated for T-wave increase of rat EKG measured as percent reduction after 30 min at a dosage of 8 mg/kg; format: functional
[6] = Oryctolagus cuniculus, Artery, read-out: ED30

| SMILES | ED30 (Oryctolagus cuniculus) [mg/kg] | ED30 (Oryctolagus cuniculus; [6]) [mg/kg] | also measured |
| --- | --- | --- | --- |
| O=[N+]([O-])OC1COC2C1OC[C@@H]2Cl (stereo in doubt; 5b) [listing 1 of 2 here] | 0.14 | – | – |
| O=[N+]([O-])OC1COC2CCOC21 (stereo in doubt; 6a) | – | 0.6 | Reduction (Rattus norvegicus [1]; 200 mg/kg): -38% |
| O=[N+]([O-])OC1CO[C@@H]2C(O)CO[C@H]12 (single isomer, unassigned) [ISOSORBIDE MONONITRATE] | 3.43 | – | Reduction (Rattus norvegicus [2]): -43% |
| O=[N+]([O-])O[C@H]1CO[C@H]2[C@@H]1OC[C@H]2O[N+](=O)[O-] [ISOSORBIDE DINITRATE] | – | 0.08 | Reduction (Rattus norvegicus [3]): -75% |
| O=[N+]([O-])OC1COC2C1OC[C@@H]2Cl (stereo in doubt; 5a) | – | 0.1 | Reduction (Rattus norvegicus [1]): -38% |
| O=[N+]([O-])OC1COC2C1OC[C@@H]2Cl (stereo in doubt; 5b) [listing 2 of 2 here] | – | – | Reduction (Rattus norvegicus [4]): inactive |
| O=[N+]([O-])OC1COC2CCOC21 (stereo in doubt; 6b) | 1 | – | Reduction (Rattus norvegicus [1]; 200 mg/kg): -33% |
| O=[N+]([O-])O[C@@H]1CO[C@H]2[C@@H]1OC[C@@H]2O [ISOSORBIDE MONONITRATE] | 0.31 | – | Reduction (Rattus norvegicus [5]): -59% |
